# Measurements reported in patent publication US9226950B2, “Method and composition for treating diabetes mellitus” (National Dong Hwa University, priority 2013, dated 2016).
# Columns and labels:
# [1] = tested on: AKT; assay: Phosphorylation of AKT on Thr308 in L6 cells, Western blot; format: cell-based, rat; settings: FIG. 1(b)
# Protocol: […] muscle myoblast cells (L6) was a generous gift from Professor Hitoshi Ashida's Lab. (Kobe University, Kobe, Japan). The cells were grown and maintained in α-minimal essential medium (α-MEM, 12000022, GIBCO, CA, USA) containing 10% fetal bovine serum (FBS, GIBCO) and 1% penicillin streptomycin (GIBCO) in a cell culture incubator with 5% CO2 at 37° C. Prior to the following experiments, the cells were seeded and cultured at a density of 8×10^3 cells per well in 96-well plates or 2.5×10^5 cells per well in 6-well plates. After the myoblasts achieved 80% confluence, the cells were incubated for 5 days in the α-MEM supplemented with 2% FBS to induce differentiation to myotubes.
# The L6 cells were fully differentiated with α-MEM supplemented with 2% FBS for 5 days to myotubes. The cells were washed twice with PBS containing 0.1% BSA and subsequently incubated α-MEM containing 0.25% BSA with or without 100 nM of S961, and then treated with or without 100 μM of Tetracosanol for 90 min. Then, the cells were treated with or without 10 μM of insulin for 30 min. Finally, the cells were collected and washed twice in KRH buffer, then lysed in ice-cold RIPA buffer for 60 min. After centrifugation at 12,000×g for 30 min. at 4° C., the supernatant was kept at −80° C. until use. The levels of the proteins including phospho-AKT (Thr308), AKT, phospho-AMPK (Thr172), and AMPK (Cell Signaling) were detected and evaluated by Western blot with primary antibody.
# The cells after treatments were collected and washed twice in cold KRH buffer, and then lysed in ice-cold RIPA buffer incubation at 4° C. for 60 min. After centrifugation at 12,000×g for 30 min at 4° C., the supernatant was kept and quantified by Bradford protein assay (Bio-Rad, Hercules, Calif., USA). The proteins were separated using sodium dodecyl sulfate polyacrylamide gel electrophoresis (SDS-PAGE) and subsequently transferred to PVDF (Perkin Elmer Life Sciences, Boston, Mass., USA) membrane. […] The signals were monitored using Western Lightning™ Plus-ECL (Perkin Elmer Life Sciences) and the PVDF membrane was exposed to Luminescent image analyzer (LAS)-3000 (Fujifilm, Minato, Tokyo, Japan). Acquired data were analyzed and compared the difference among treatments.
# The differentiated L6 cells were incubated with 100 μM of tetracosanol (Tet) at 37° C. for 90 min, and then treated 10 μM of insulin (Ins) at 37° C. for 5 or 30 min. The cell lysates were separated by SDS-PAGE and blotted 5 min for phospho-Insr on Tyr1158, 1162, and 1163 (Insr, 100 kDa), and phospho-AKT on Thr308 protein level was measured at 30 min in Western blot analysis.
# [2] = tested on: S961-induced hyperglycemic mice (DM mice); assay: Oral glucose tolerance test (OGTT) in S961-induced hyperglycemic mice; format: in vivo, C57BL/6 mouse; settings: D-glucose 2 g/kg
# Protocol: Animal experiments were approved by the National Dong-Hwa University Animal Ethics Committee and were used according to the “Guide for the Care and Use of Laboratory Animals” of National Dong-Hwa University. The C57BL/6 mouse were obtained National Laboratory Animal Center (Taipei, Taiwan) and kept at controlled environmental conditions with room temperature (22±2° C.) and humidity (50±10%). The 12 hr light (0600 am-1800 pm) and 12 hr dark cycle was maintained throughout the study. Mice had free access to food and water and maintained on a standard laboratory diet (containing carbohydrates: 60%, proteins: 28%, lipids: 12%, and vitamins: 3%).
# The 8 weeks old male C57 BL/6 mice after fasting 12 hr were used in this test. The mice were orally administered (p.o.) with tetracosanol (dissolved in PEG and EtOH, 25 mg/kg Bwt) or Metformin (100 mg/kg Bwt) for 3 hr. To investigate the effect of tetracosanol on the DM mice, the mice were intraperitoneally injected (i.p.) with S961 (50 nmol/kg Bwt) to induce hyperglycemia, prior to the administration of D-glucose (2 g/kg Bwt, p.o.). At approximately the 0, 30, 60, 90, and 120 min., the blood of each mouse was sampled by venipuncture from the tail vein for the determination of blood glucose. Blood glucose was immediately determined by the glucose oxidase method using glucose analyzer (Accu-Chek, Roche).
# To investigate the glycemic control effect of tetracosanol on the hyperglycemic mice, hyperglycemic mice were induced by insulin receptor antagonist-S961. The mice of each group were treated with or without Metformin (Met) as positive control, or treated with or without tetracosanol (Tet). Then, all the groups were administered with D-glucose (2 g/kg Bwt) (n=6 in each group). The tetracosanol for glycemic control was confirmed by OGTT.
# 8 weeks old male C57 BL/6 mice after fasting 12 hr were employed in this study. […] The blood glucose was determined by the glucose oxidase method using glucose analyzer (Accu-Chek, Roche). […]
compound,measurement,setting,value
CCCCCCCCCCCCCCCCCCCCCCCCO [tetracosanol],phospho-AKT on Thr 308,"[1]; 100 μM tetracosanol (Tet) alone, 90 min",did not
same,phospho-AKT on Thr 308,[1]; insulin plus both S961 and tetracosanol (Ins+S961+Tet),induced the phospho-AKT on Thr 308
same,phospho-AKT on Thr 308,"[1]; insulin plus tetracosanol (Ins+Tet): 100 μM tetracosanol 90 min, then 10 μM insulin 30 min",induced the phospho-AKT on Thr 308
same,blood glucose change in OGTT,"[2]; DM mice (S961), p.o., comparison with metformin, FIG. 6(a)",even better than metformin
same,blood glucose change in OGTT,"[2]; tetracosanol 25 mg/kg Bwt p.o. versus Metformin 100 mg/kg Bwt, S961 50 nmol/kg i.p., FIG. 5(a)",profile similar to the treatment with metformin
same,AUC of the blood glucose change in OGTT,"[2]; tetracosanol 25 mg/kg Bwt p.o., DM mice (S961) and normal mice (Con), FIG. 5(b)",good efficacy in glycemic control
